Reference: US8206732B2, “Pyrithione biocides enhanced by silver, copper, or zinc ions” (Arch Chemicals, Inc., priority 1999, dated 2012)
“And” between values parts separate entries of the source, which are not always exact repeats. Equal values may be shown once.

What was measured:
[1] = system: Ps. aeruginosa ATCC 9027; test: Checkerboard MIC test, pyrithiones with zinc salts; assay type: cell-based, Pseudomonas aeruginosa; conditions: TSB, 28 C, 3 days
[2] = system: Aspergillus niger ATCC 6275; test: Checkerboard MIC test, pyrithiones with zinc salts; assay type: cell-based; conditions: TSB, 28 C, 5 days
[3] = system: Staphylococcus aureus ATCC 27217; test: Zone of inhibition test (paper disc on TSA); assay type: cell-based; conditions: 6.5 mm discs; 0.135% pyrithione, 0.1% ZnCl2 or both; 28° C., 24 hr
[4] = system: Escherichia coli ATCC 10536; test: Zone of inhibition test (paper disc on TSA); assay type: cell-based; conditions: 6.5 mm discs; 0.135% pyrithione, 0.1% ZnCl2 or both; 28° C., 24 hr
[5] = system: Pseudomonas aeruginosa NCIMB 6749; test: Zone of inhibition test (paper disc on TSA); assay type: cell-based; conditions: 6.5 mm discs; 0.135% pyrithione, 0.1% ZnCl2 or both; 28° C., 24 hr
[6] = system: Staphylococcus aureus ATCC 27217; test: Checkerboard MIC test, pyrithiones with zinc salts; assay type: cell-based; conditions: TSB, 28 C, 3 days
[7] = system: Pseudomonas aeruginosa NCIMB 6749; test: Checkerboard MIC test, pyrithiones with zinc salts; assay type: cell-based; conditions: TSB, 28 C, 3 days
[8] = system: Fusarium sp.; test: Checkerboard MIC test, pyrithiones with zinc salts; assay type: cell-based; conditions: TSB, 28 C, 5 days
Experimental: Mixtures of pyrithione and zinc or silver in various proportions were tested for relative efficacy by a modification of the procedure described by Dougherty, et al.
Equal volumes of bacteria (10^6 cells/ml) or fungi (10^5 spores/ml) were added to each microtiter plate well. The plates were incubated at 28 C for 3 days (bacteria) or 5 days (fungi), and the minimum inhibitory concentration (MIC) of biocide was determined. The Fractional Inhibitory Concentration (FIC=concentration of biocide in an inhibitory mixture divided by the MIC of the pure biocide) was determined, and the FIC Index (sum of the two FIC's) was calculated. The type of interaction was categorized according to the magnitude of the Index: Synergistic (<1), Additive (1), or Antagonistic (>1).

[9] = system: Staphylococcus aureus 27217; test: Checkerboard MIC test, pyrithiones with silver salts; assay type: cell-based; conditions: ZPT alone or in the inhibitory mixture with silver salt; TSB pH 7.3, 35° C., 1 to 2 days
[10] = system: Escherichia coli 10536; test: as above; assay type: cell-based; conditions: ZPT alone or in the inhibitory mixture with silver salt; TSB pH 7.3, 35° C., 1 to 2 days
[11] = system: seven cultures of bacteria; test: Challenge test in soluble oil metalworking fluid, bacteria (Example 6); assay type: cell-based; conditions: soluble oil MWF, 10 ppm Zn, 100 ppm NaPT, 50 ppm ZPT or 50 ppm CuPT as in column head
[12] = system: two cultures of fungi; test: Challenge test in soluble oil metalworking fluid, fungi (Example 6); assay type: cell-based; conditions: soluble oil MWF, 10 ppm Zn, 100 ppm NaPT, 50 ppm ZPT or 50 ppm CuPT as in column head
[13] = system: E. coli 8739 free-living cells; test: Viable free-living cells in bulk metalworking fluid (Example 5); assay type: cell-based, Escherichia coli; conditions: 10% TSB; 100 PPM NaPT, 10 PPM Zn (II) or both; 4 days after treatment
[14] = system: Fusarium sp. free-living cells; test: as above; assay type: cell-based; conditions: 100 PPM NaPT, 10 PPM Zn (II) or both, 4 days after treatment
Experimental: (§1) Experiments were conducted to investigate the efficacy of the composition of the present invention to inhibit the survival, growth, and proliferation of free-living and biofilm populations of bacteria and fungi in metalworking fluids. […] Metalworking fluids (MWF) employed included 5% soluble oil MWF, 5% semi-synthetic MWF, or 5% synthetic MWS. For testing against bacteria, metalworking fluids were supplemented with 2% (weight-to-weight ratio (w:w)) of 5 g/L yeast extract (Difco), Metalworking fluids were supplemented with 2% (weight-to-weight (w:w)) of Tryptic Soy Broth (Difco) for fungal tests.
(§2) For each experiment, three ml of a 5% metalworking fluid was added to each of twelve, sterile, 16 mm×150 mm glass culture tubes. […] Fusarium sp. was added to the tubes to final concentrations of 10^5 spores/ml for the fungal tests. Tubes incubated for 3 days at 28° C. and 180 rpms.
(§3) After the treatments additions were performed, the culture tubes resumed incubation at 28° C., 180 rpms for an additional 4 days.
(§4) After 4 days, culture tubes were removed from the incubator and viable counts of organisms from the bulk MWF fluid and the biofilm were determined using serial dilution and drop plating techniques. For biofilms, polycarbonate discs were removed from tubes, dip-rinsed in three successive washes of de-ionized water to remove loosely attached cells, and transferred to 25 mm×150 mm culture tubes containing 10 ml of sterile, de-ionized water. Biofilms were removed from discs and resuspended by vortexing tubes for 30 seconds. Bacteria were plated on to R2A Agar plates and incubated at 37° C. Fungi were plated onto Malt Agar plates and incubated at 28° C. Mean colony forming units per ml (for bulk) and per square cm (cm^2) biofilm were determined for each experimental treatment.

[15] = system: E. coli 8739 biofilm; test: Viable biofilm cells on discs in metalworking fluid (Example 5); assay type: cell-based, Escherichia coli; conditions: 10% TSB, polycarbonate disc; 100 PPM NaPT, 10 PPM Zn (II) or both; 4 days after treatment
[16] = system: Fusarium sp. biofilm; test: as above; assay type: cell-based; conditions: polycarbonate disc, 100 PPM NaPT, 10 PPM Zn (II) or both, 4 days after treatment
Experimental: as §1, §2, §3, §4

[17] = system: mixed bacteria (Pseudomonas aeruginosa 9027, Escherichia coli 8739, Pseudomonas fluorescens 12201, Pseudomonas rubescens 12202, Pseudomonas putida); test: Various mixtures of NaPT and Zn(II) against bacteria in 5% metalworking fluid (Example 8, Table 10a); assay type: cell-based, Pseudomonas spp.
[18] = system: Fusarium sp. and Cephalosporium sp.; test: Various mixtures of NaPT and Zn(II) against fungi in 5% metalworking fluid (Example 8, Table 10b); assay type: cell-based
[19] = Zn(II) from ZnO, alone or in the inhibitory mixture
[20] = pyrithione alone or pyrithione concentration in the inhibitory mixture
[21] = pyrithione alone or in the inhibitory mixture with ZnO
[22] = Zn(II) alone or Zn(II) concentration in the inhibitory mixture
[23] = semi-synthetic, Zn (II) 10 PPM, Day 1
[24] = semi-synthetic, Zn (II) 10 PPM, Day 2
[25] = semi-synthetic, Zn (II) 10 PPM, Day 7
[26] = semi-synthetic, Zn (II) 20 PPM, Day 1
[27] = semi-synthetic, Zn (II) 20 PPM, Day 2
[28] = semi-synthetic, Zn (II) 20 PPM, Day 7
[29] = semi-synthetic, Zn (II) 30 PPM, Day 1
[30] = semi-synthetic, Zn (II) 30 PPM, Day 2
[31] = semi-synthetic, Zn (II) 30 PPM, Day 7
[32] = semi-synthetic, Zn (II) 100 PPM, Day 1
[33] = semi-synthetic, Zn (II) 100 PPM, Day 4
[34] = semi-synthetic, Zn (II) 500 PPM, Day 1
[35] = semi-synthetic, Zn (II) 500 PPM, Day 4
[36] = synthetic, Zn (II) 10 PPM, Day 1
[37] = synthetic, Zn (II) 20 PPM, Day 1

## [O]=[Zn] [ZnO]
[1]; [19]
  MIC Zn(II): >1645 ppm
[2]; [19]
  MIC Zn(II): >1645 ppm

## zinc pyrithione [ZPT]
[3]
  Zone of Inhibition: 27 mm
[4]
  Zone of Inhibition: 31 mm
[5]
  Zone of Inhibition: 10 mm
[6]; [20]
  MIC Pyrithione: 4 ppm
[7]; [20]
  MIC Pyrithione: 256 ppm
[8]; [20]
  MIC Pyrithione: 64 ppm
[1]; [21]
  MIC Pyrithione: 512 ppm
[2]; [21]
  MIC Pyrithione: 64 ppm
[9]
  MIC ZPT: 4 ppm
[10]
  MIC ZPT: 8 ppm
[11]; DAY 0
  BACTERIA (cfu/ml): 3.2 × 10^7 cfu/ml
[11]; DAY 6
  BACTERIA (cfu/ml): 1000 cfu/ml
[11]; DAY 13
  BACTERIA (cfu/ml): 4400 cfu/ml
[11]; DAY 20
  BACTERIA (cfu/ml): 7700 cfu/ml
[12]; DAY 0
  FUNGI (cfu/ml): 2.4 × 10^5 cfu/ml
[12]; DAY 6
  FUNGI (cfu/ml): 1000 cfu/ml
[12]; DAY 13
  FUNGI (cfu/ml): 10 cfu/ml
[12]; DAY 20
  FUNGI (cfu/ml): 10 cfu/ml

## O=S(=O)([O-])[O-].[Zn+2] [ZnSO4]
[6]; [22]
  MIC Zn(II): 200 ppm
[7]; [22]
  MIC Zn(II): >200 ppm and <200 ppm
[8]; [22]
  MIC Zn(II): >200 ppm and <200 ppm
[13]
  viable free-living microorganisms: 5.8 × 10^8 cells/ml
[14]; 5% semisynth. MWF
  viable free-living microorganisms: 4.6 × 10^5 cells/ml
[14]; 5% synthetic MWF
  viable free-living microorganisms: 8.7 × 10^6 cells/ml
[14]; 100% TSB
  viable free-living microorganisms: 3.4 × 10^6 cells/ml
[15]
  viable biofilm microorganisms: 6.5 × 10^5 cells/cm^2
[16]; 5% semisynth. MWF
  viable biofilm microorganisms: 27 cells/cm^2
[16]; 5% synthetic MWF
  viable biofilm microorganisms: 1.4 × 10^5 cells/cm^2
[16]; 100% TSB
  viable biofilm microorganisms: 3.3 × 10^4 cells/cm^2
[17]; [23]
  Bacteria/ml: 170 Bacteria/ml
[17]; [24]
  Bacteria/ml: 3.2 × 10^5 Bacteria/ml
[17]; [25]
  Bacteria/ml: 4.8 × 10^4 Bacteria/ml
[17]; [26]
  Bacteria/ml: 1.5 × 10^5 Bacteria/ml
[17]; [27]
  Bacteria/ml: 1.4 × 10^4 Bacteria/ml
[17]; [28]
  Bacteria/ml: 4.0 × 10^3 Bacteria/ml
[17]; [29]
  Bacteria/ml: 1.7 × 10^3 Bacteria/ml
[17]; [30]
  Bacteria/ml: 1.5 × 10^5 Bacteria/ml
[17]; [31]
  Bacteria/ml: 1.3 × 10^5 Bacteria/ml
[17]; [32]
  Bacteria/ml: 4.9 × 10^4 Bacteria/ml
[17]; [33]
  Bacteria/ml: 5.7 × 10^4 Bacteria/ml
[17]; [34]
  Bacteria/ml: 9.5 × 10^4 Bacteria/ml
[17]; [35]
  Bacteria/ml: 1.1 × 10^5 Bacteria/ml
[17]; [36]
  Bacteria/ml: 30 Bacteria/ml
[17]; [37]
  Bacteria/ml: 190 Bacteria/ml
[18]; [23]
  Fungi/ml: 1.0 × 10^4 Fungi/ml
[18]; [24]
  Fungi/ml: 5.0 × 10^3 Fungi/ml
[18]; [25]
  Fungi/ml: 4.8 × 10^2 Fungi/ml
[18]; [26]
  Fungi/ml: 1.2 × 10^4 Fungi/ml
[18]; [27]
  Fungi/ml: 1.6 × 10^4 Fungi/ml
[18]; [28]
  Fungi/ml: 4.0 × 10^3 Fungi/ml
[18]; [29]
  Fungi/ml: 1.2 × 10^4 Fungi/ml
[18]; [30]
  Fungi/ml: 1.5 × 10^4 Fungi/ml
[18]; [31]
  Fungi/ml: 1.3 × 10^3 Fungi/ml
[18]; [32]
  Fungi/ml: 3.3 × 10^4 Fungi/ml
[18]; [33]
  Fungi/ml: 1.1 × 10^4 Fungi/ml
[18]; [34]
  Fungi/ml: 4.4 × 10^4 Fungi/ml
[18]; [35]
  Fungi/ml: 2.0 × 10^4 Fungi/ml
[18]; semi-synthetic, Zn (II) 1000 PPM, Day 1
  Fungi/ml: 4.1 × 10^4 Fungi/ml
[18]; semi-synthetic, Zn (II) 1000 PPM, Day 4
  Fungi/ml: 1.0 × 10^4 Fungi/ml
[18]; [36]
  Fungi/ml: 7.5 × 10^4 Fungi/ml
[18]; synthetic, Zn (II) 10 PPM, Day 2
  Fungi/ml: 3.1 × 10^4 Fungi/ml
[18]; synthetic, Zn (II) 10 PPM, Day 7
  Fungi/ml: 1.4 × 10^4 Fungi/ml
[18]; [37]
  Fungi/ml: 3.9 × 10^4 Fungi/ml
[18]; synthetic, Zn (II) 20 PPM, Day 2
  Fungi/ml: 2.2 × 10^4 Fungi/ml
[18]; synthetic, Zn (II) 20 PPM, Day 7
  Fungi/ml: 1.3 × 10^4 Fungi/ml
[18]; synthetic, Zn (II) 30 PPM, Day 1
  Fungi/ml: 4.2 × 10^4 Fungi/ml
[18]; synthetic, Zn (II) 30 PPM, Day 2
  Fungi/ml: 2.1 × 10^4 Fungi/ml
[18]; synthetic, Zn (II) 30 PPM, Day 7
  Fungi/ml: 5.0 × 10^3 Fungi/ml
[18]; synthetic, Zn (II) 100 PPM, Day 1
  Fungi/ml: 2.1 × 10^4 Fungi/ml
[18]; synthetic, Zn (II) 100 PPM, Day 4
  Fungi/ml: 6.0 × 10^3 Fungi/ml
[18]; synthetic, Zn (II) 500 PPM, Day 1
  Fungi/ml: 9.0 × 10^3 Fungi/ml
[18]; synthetic, Zn (II) 500 PPM, Day 4
  Fungi/ml: 5.0 × 10^3 Fungi/ml
[18]; synthetic, Zn (II) 1000 PPM, Day 1
  Fungi/ml: 4.0 × 10^3 Fungi/ml
[18]; synthetic, Zn (II) 1000 PPM, Day 4
  Fungi/ml: 2.0 × 10^3 Fungi/ml
[18]; synthetic, Zn (II) 5000 PPM, Day 1
  Fungi/ml: 2.0 × 10^3 Fungi/ml
[18]; synthetic, Zn (II) 5000 PPM, Day 4
  Fungi/ml: 4.0 × 10^3 Fungi/ml
